Test results as given in the NIST ThermoML archive (doi:10.1007/s10765-013-1487-y).
Several values for one entry are separate records, joined by “and”; a condition that tells them apart may be missing. Equal values may be shown once. ± gives the expanded uncertainty stated by the source.

Conditions: 101.33 kPa, Liquid; for mass density: Vibrating tube method

CCCCCC[n+]1ccn(C)c1.O=S(=O)([N-]S(=O)(=O)C(F)(F)F)C(F)(F)F
viscosity (293.25 K, Capillary tube (Ostwald / Ubbelohde) method): 89.98 ± 2.6 mPa·s
viscosity (298.19 K, Capillary tube (Ostwald / Ubbelohde) method): 71.11 ± 2.1 mPa·s

CCOS(=O)(=O)[O-].CCn1cc[n+](C)c1 [1-ethyl-3-methylimidazolium ethyl sulfate]
mass density (290.65 K): 1243.24 ± 0.56 kg/m3
mass density (290.66 K): 1243.24 ± 0.56 kg/m3
viscosity (293.14 K, Vibrating wire viscometry): 125.7 ± 3.3 mPa·s
mass density (293.15 K): 1241.55 ± 0.56 kg/m3
mass density (293.16 K): 1241.54 ± 0.56 kg/m3
viscosity (293.23 K, Capillary tube (Ostwald / Ubbelohde) method): 128.62 ± 3.5 mPa·s
mass density (295.65 K): 1239.85 ± 0.56 kg/m3
mass density (298.15 K): 1238.14 ± 0.55 kg/m3 and 1238.15 ± 0.55 kg/m3
mass density (298.16 K): 1238.15 ± 0.55 kg/m3
viscosity (298.18 K, Capillary tube (Ostwald / Ubbelohde) method): 99.37 ± 2.6 mPa·s
viscosity (298.19 K, Vibrating wire viscometry): 97.19 ± 2.4 mPa·s
mass density (300.65 K): 1236.44 ± 0.55 kg/m3 and 1236.46 ± 0.55 kg/m3
mass density (300.66 K): 1236.45 ± 0.55 kg/m3
mass density (303.15 K): 1234.75 ± 0.55 kg/m3 and 1234.76 ± 0.55 kg/m3
viscosity (303.15 K, Vibrating wire viscometry): 76.8 ± 1.8 mPa·s
mass density (305.64 K): 1233.06 ± 0.55 kg/m3
mass density (305.65 K): 1233.06 ± 0.55 kg/m3
mass density (305.66 K): 1233.06 ± 0.55 kg/m3
mass density (308.14 K): 1231.37 ± 0.55 kg/m3
mass density (308.15 K): 1231.37 ± 0.55 kg/m3
mass density (308.16 K): 1231.37 ± 0.55 kg/m3
viscosity (308.21 K, Vibrating wire viscometry): 61.42 ± 1.4 mPa·s
mass density (310.64 K): 1229.68 ± 0.55 kg/m3 and 1229.69 ± 0.55 kg/m3
mass density (310.66 K): 1229.68 ± 0.55 kg/m3
viscosity (313.14 K, Vibrating wire viscometry): 50.05 ± 1.1 mPa·s
mass density (313.15 K): 1228 ± 0.54 kg/m3
mass density (315.64 K): 1226.32 ± 0.54 kg/m3
mass density (315.66 K): 1226.31 ± 0.54 kg/m3
viscosity (318.13 K, Vibrating wire viscometry): 41.42 ± 0.93 mPa·s
mass density (318.15 K): 1224.63 ± 0.54 kg/m3 and 1224.64 ± 0.54 kg/m3
mass density (320.65 K): 1222.96 ± 0.54 kg/m3

CCOS(=O)(=O)[O-].CC[n+]1cccc(C)c1 [1-ethyl-3-methylpyridinium ethylsulfate]
viscosity (293.16 K, Capillary tube (Ostwald / Ubbelohde) method): 182.68 ± 5.6 mPa·s
viscosity (298.13 K, Capillary tube (Ostwald / Ubbelohde) method): 135.35 ± 4 mPa·s
